What was measured:
[1] = system: A549 Non-Small Cell Lung Cancer Cells; assay: A549 cells injected into the tail vein of mice; format: in vivo; conditions: sacrificed at Day 22; BAPN 100 mg/kg daily
Method: Human lung cancer A549 cells (ATCC CCL 185), known to be highly metastatic, were generated to stably express shRNA targeting LOX, as described in Methods. […] 1×10^6 cells were injected into the tail vein of mice (all cells go to the lung).
Lungs from the dead mice bearing control tumors were formalin fixed, paraffin embedded and H&E stained to quantify lung tumors. Most lungs contained no tumors but all mice had numerous lymph node metastases and one had liver metastases. N=5 mice bearing lung tumors expressing LOX shRNA were sacrificed at Day 22. […] In addition, n=5 mice bearing control tumors treated daily with BAPN (100 mg/kg) were sacrificed at Day 22. […] The number of lung tumors for the A549 control animals is low because it is believed that the tumors metastasized out of the lung.
Wild-type or LOX shRNA A549 Non-Small Cell Lung Cancer Cells were injected into the tail vein of immune deficient mice and analyzed for survival differences for a period of 181 days. 100% of animals with wild-type tumors died within 35 days compared with only 40% of animals stably transfected with a shRNA to LOX. Some animals were allowed two weeks to develop metastases, and then were left untreated or treated twice weekly with 2 mg/kg of the LOX antibody in Example 7. FIG. 12 is a Kaplan-Meyer plot showing survival of the animals.

[2] = system: MDA231 cells; assay: Pulmonary metastases from orthotopic MDA231 tumors with conditioned media injections after bone marrow transplantation; format: in vivo, mice
Excerpt: We then determined whether elevated levels of circulating LOX from hypoxic tumor cells could affect BMDC recruitment and formation of the metastatic niche. We transplanted male bone marrow cells into female mice prior to orthotopically implanting Wt or LOX shRNA MDA231 cells, and used in situ hybridization with a Y-chromosome-specific probe to investigate BMDC recruitment. We allowed two weeks for primary tumor formation, and then supplemented the mice with different levels of circulating LOX for four weeks by daily intraperitoneal CM injections (FIG. 20B).
Nude (nu/nu) 6-week old female mice were lethally irradiated (950 rads) and transplanted with 10^6 bone marrow cells isolated from the tibia and femur of nude (nu/nu) male mice 48 hr later. After 4 weeks, 10^7 MDA231 human breast cancer cells expressing either an shRNA targeting LOX or a scrambled control sequence were implanted orthotopically in the mammary fat pad.
Conditioned media (CM) consisted of serum-free Modified Eagle's Medium cultured on MDA231 LOX shRNA or control cells incubated in normoxia (N; 21% O2) or hypoxia (H; 2% O2) for 24 h. CM was passed through a 0.22-μm filter and 300-μl were injected intraperitoneally daily into mice (Kaplan (2005), supra). When stated, beta-aminoproprionitrile was added to CM for an injection dose of 100 mg/kg. […]

[3] = system: FAK; assay: FAK phosphorylation (phospho-FAK immunoblot); format: cell-based; conditions: cells expressing LOX shRNA transfected with mature LOX
Excerpt: Acquisition of motility is required before cells can migrate and invade. Invasive cell migration is a multi-step process^17 that commences with pseudopod protrusion at the leading edge driven by actin polymerization, resulting in focal adhesion formation and the activation of integrin and focal adhesion kinase (FAK). […] LOX protein expression extended along hairlike fibers protruding from the cell surface into the collagen matrix. […] Remodeling of the actin cytoskeleton with increased formation of stress fibers and focal adhesion in MDA231 control cells particularly in hypoxia was observed, which were not seen in cells expressing LOX shRNA.
A role for fibronectin (FN) was sought, because it was strongly associated with LOX expression in the breast cancer microarray data set that was analyzed (data not shown), is reported to regulate invasion, bind to integrins and interact with LOX, and is hypoxia induced. […] FAK phosphorylation could be induced in the cells expressing LOX shRNA by transfection with mature LOX (but not catalytically dead LOX), confirming a role for LOX in FAK phosphorylation. […]
Methods were performed as previously described. […] LOX was analyzed by using a rabbit polyclonal antibody raised against a synthetic peptide of human LOX (EDTSCDYGYHRRFA (SEQ ID NO:1); Open Biosystems). […] Quantification was performed with ImageQuant software.

[4] = system: MMP-2; assay: MMP gelatin zymography of RAW macrophages incubated with conditioned media; format: cell-based; conditions: BMDCs incubated 24 h with CM from hypoxic Wt cells
Method: We examined changes in BMDC MMP activity induced by CM (FIG. 21C). MMP-9 activity was not affected by LOX or FN alone, but was elevated in CM supplemented with FN regardless of LOX status. This is consistent with our finding that FN has a stronger influence than LOX on BMDC migration.
Gelatin enzymography was performed to assess MMP activity as described. Protein concentrations were quantified to ensure equal loading.

[5] = system: lung and bone metastases; assay: Lung and bone metastases in treated mice (FIG. 17); format: in vivo; conditions: FIGS. 17A-D
Method: FIGS. 17A-C are pictures of lungs from mice which were treated and untreated with LOX shRNA, a LOX antibody or BAPN, showing the effect of LOX treatment on metastases in lung.
FIGS. 17A-C are pictures of lungs from mice which were treated and untreated with LOX shRNA, the LOX antibody in Example 7 or BAPN, showing the effect of LOX treatment on metastases in lung.

N#CCCN [BAPN, β-aminoproprionitrile]
lung tumors [1]: very few tumors
metastases [1]: no metastases
pulmonary metastases of mice bearing Wt tumors ([2]; 6 wk post-orthotopic implantation): eliminated
increase in LOX shRNA tumor cell metastases in response to CM from hypoxic Wt cells ([2]; BAPN added to CM, injection dose 100 mg/kg): could be prevented
FAK phosphorylation induced by transfection with mature LOX [3]: could be prevented
MMP-2 activity [4]: reduced
lung and bone metastases [5]: either stabilized disease or regression of lung and bone metastases

Source: patent publication US20070225242A1, “Method and composition for treating and preventing tumor metastasis in vivo” (The Board of Trustees of the Leland Stanford Junior …, priority 2005, published 2007)
